Test results: BindingDB's records for doi:10.1016/s0960-894x(99)00197-3 (The R. W. Johnson Pharmaceutical Research Institute, 1999)

Test: Activation of human platelet aggregation (gel-filtered platelets) induced by alpha thrombin

SMILES | EC50 [µM]
N=C(N)NCCC[C@H](NC(=O)[C@H](Cc1ccccc1)NC(=O)c1nnc(N)[nH]1)C(=O)N[C@@H](Cc1ccccc1)C(N)=O [5-Amino-1H-[1,2,4]triazole-3-carboxylic acid {(S)-1-[(S)-1-((S)-1-carbamoyl-2-phenyl-ethylcarbamoyl)-4-guanidino-butylcarbamoyl]-2-phenyl-ethyl}-amide] | 1
NCCCC[C@H](NC(=O)[C@H](CC1CCCCC1)NC(=O)c1nnc(N)[nH]1)C(=O)N[C@@H](Cc1ccccc1)C(N)=O [5-Amino-1H-[1,2,4]triazole-3-carboxylic acid {(S)-1-[(S)-5-amino-1-((S)-1-carbamoyl-2-phenyl-ethylcarbamoyl)-pentylcarbamoyl]-2-cyclohexyl-ethyl}-amide] | 3.9

Next, values leading:

EC50 [µM] | SMILES
0.76 | N=C(N)NCCC[C@H](NC(=O)[C@H](CC1CCCCC1)NC(=O)c1nnc(N)[nH]1)C(=O)N[C@@H](Cc1ccccc1)C(N)=O [5-Amino-1H-[1,2,4]triazole-3-carboxylic acid {(S)-1-[(S)-1-((S)-1-carbamoyl-2-phenyl-ethylcarbamoyl)-4-guanidino-butylcarbamoyl]-2-cyclohexyl-ethyl}-amide]
2.4 | N=C(N)NCCC[C@H](NC(=O)[C@H](CC1CCCCC1)NC(=O)c1nnc(NC(=O)C=Cc2cccc(Cl)c2)[nH]1)C(=O)N[C@@H](Cc1ccccc1)C(N)=O [5-[(E)-3-(3-Chloro-phenyl)-acryloylamino]-1H-[1,2,4]triazole-3-carboxylic acid {(S)-1-[(S)-1-((S)-1-carbamoyl-2-phenyl-ethylcarbamoyl)-4-guanidino-butylcarbamoyl]-2-cyclohexyl-ethyl}-amide]
7.9 | N=C(N)NCCC[C@H](NC(=O)[C@H](CC1CCCCC1)NC(=O)c1nnc(NC(=O)C=Cc2ccc(F)cc2)[nH]1)C(=O)N[C@@H](Cc1ccccc1)C(N)=O [5-[(E)-3-(4-Fluoro-phenyl)-acryloylamino]-1H-[1,2,4]triazole-3-carboxylic acid {(S)-1-[(S)-1-((S)-1-carbamoyl-2-phenyl-ethylcarbamoyl)-4-guanidino-butylcarbamoyl]-2-cyclohexyl-ethyl}-amide]
21 | N=C(N)NCCC[C@H](NC(=O)[C@H](CC1CCCCC1)NC(=O)c1nnc(NC(=O)C=Cc2ccccc2)[nH]1)C(=O)N[C@@H](Cc1ccccc1)C(N)=O [5-[(E)-(3-Phenyl-acryloyl)amino]-1H-[1,2,4]triazole-3-carboxylic acid {(S)-1-[(S)-1-((S)-1-carbamoyl-2-phenyl-ethylcarbamoyl)-4-guanidino-butylcarbamoyl]-2-cyclohexyl-ethyl}-amide]
